This passage reports IC50 results from patent US20250333398A1, “MONOARYL AND HETARYL SUBSTITUTED INDAZOLES AND BENZIMIDAZOLES AS STING ANTAGONISTS AND THE USE THEREOF AS MEDICAMENT” (Boehringer Ingelheim International GmbH, priority 2024, published 2025).

One test concerns T1, STING.
T1 construct: from tissue; host or cells: human whole blood from healthy donors
The test can be described thus: Human whole blood assay (HWBA), cGAMP-stimulated IFNα2α production. The test is classed as cell-based. As to conditions: human whole blood stimulated by cGAMP. How it is done: For the detection of STING inhibition in physiological environment human whole blood was stimulated by the cyclic dinucleotide cGAMP. Pathway activity was monitored by measuring the IFNα2α production.
Assay method: Compounds were delivered as 10 mM DMSO solution and serial diluted and transferred to the 96-well Cell culture Plate (Corning #3595), prefilled with 20 μl OptiMEM (Gibco #11058-021) in each well, using an Echo acoustic dispenser. Typically, 8 concentrations were used with the highest concentration at 10 μM in the final assay volume followed by ^˜1:5 dilution steps. DMSO concentration was set to 0.1% in the final assay volume. The 96 well assay plate contained 9 test compounds, a reference compound and DMSO in control wells.
Collection of human whole blood from 3 or more healthy donors (male or female, no medication for 7 days, exception contraceptive and thyroxine) as Na-citrate blood (e.g. 3.8% in Monovettes from Sarstedt) is conducted in parallel. Whole blood was kept at room temperature for a maximum of 3 hours after collection until use in the assay.
160 μl of the whole blood samples were transferred to each well of the 96-well assay plates filled with compound/OptiMEM. All assay plates are prepared as duplicates with blood from different donors. Blood plates were kept at room temperature for 60 minutes and continuous shaking with 450 rpm, covered with the lid, but not sealed.
A 10× cGAMP assay solution was diluted from a 2 mM stock solution in 1×HBSS immediately before use at room temperature. 20 μl of the 10× cGAMP/HBSS were added to all compound and all high control wells, whereas HBSS only was added to all low control wells.
After covering assay plates with aera seals and the lid, blood plates were kept at room temperature for 30 minutes and continuous shaking with 450 rpm, followed by an overnight incubation of 22 h at 37° C. in the incubator, without shaking.
For the detection of IFNα-2α in human plasma, the biotinylated capture antibody (Antibody set IFNA2, Meso Scale Diagnostics #B21VH-3, including coating and capture antibody) was diluted 1:17.5 in Diluent 100 (Meso Scale Diagnostics #R50AA-4, according to the manufacturer. U-Plex MSD GOLD 96-well Small Spot Streptavidin SECTOR Plates (Meso Scale Diagnostics #L45SA-5) were coated with 25 μl diluted capture antibody. Coated plates were incubated for 60 min at room temperature under continuous shaking at 700 rpm. MSD IFNα-2α plates were washed three times with 150 μl wash buffer (1×HBSS, 0.05% Tween).
After blocking the plates with 100 μl block solution/well (1×HBSS with 0.2% Tween, 2% BSA) for 60 min at room temperature and continuous shaking at 700 rpm, plates were emptied as dry as possible by dumping just before continuing with the human plasma. Whole Blood assay plates were centrifuged at 1600 rpm for 10 minutes. 25 μl of supernatant was transferred with a pipetting robotics from each whole blood plate to the corresponding IFNα-2α plate. Plates were sealed with microplate seals and kept at room temperature again under continuous shaking at 700 rpm for two hours. Next MSD IFNα-2α plates were washed three times with 150 μl wash buffer (1×HBSS, 0.05% Tween), before adding 25 μl MSD SULFO-TAG IFNα-2α Antibody solution (1:100 diluted in Diluent 3 (Meso Scale Diagnostics #R50AP-2) to each well of the plates. Afterwards plates were sealed with microplate seals and kept at room temperature again under continuous shaking at 700 rpm for two hours. Finally, MSD IFNα-2α plates were washed three times with 150 μl wash buffer (1×HBSS, 0.05% Tween). 150 μl 2× Read buffer was added to each well and plates were immediately measured with the MSD Sector S600 Reader using the vendor barcode.
Data evaluation and calculation: For data evaluation and calculation, % control calculation of each well was based on the mean of high (cGAMP stimulated control) and mean of low (unstimulated control) controls by using the following formula: […]

The next test deals with T2, human STING WT (R232).
T2 construct: purchased Cisbio 64BDSTGPEG
Kind of test: Human STING HTRF binding assay (competitive, Cisbio 64BDSTGPEG). The note with it: 6His tagged human STING WT R232, competition with STING ligand-d2. How it is done:
Binders to human STING WT (R232) were identified using a competitive HTRF assay format (Cisbio 64BDSTGPEG), which uses d2-labeled STING ligand, a 6His tagged human STING protein, and an anti 6His Cryptate-labeled antibody. Compounds compete with the STING ligand-d2 and thereby prevents FRET from occurring, which can be measured by an EnVision™ reader (PerkinElmer).
Assay method: Compounds were delivered as 10 mM DMSO solution, serially diluted by an Agilent Bravo Workstation and transferred to the 384 well assay plate (Perkin Elmer #6005359) using a Cybiwell dispenser. Typically, 8 concentrations were used with the highest concentration at 10 μM or 1 μM in the final assay volume followed by ^˜1:5 dilution steps. DMSO concentration was set to 1% in the final assay volume. The 384 well assay plate contained 20 test compounds and DMSO in column 23 and 24. A cGAMP standard dilution row was prepared according to the manufacturer and transferred to each assay plate. After transfer of compound solution or dilution buffer for negative (high) and positive (low) controls, 5 μl of the human STING protein (cyclic binding domain (residues 138-379) of the WT R232 human version, fused to a 6 His tag at the Nter part; 1:50 dilution in detection buffer) were dispensed to all wells except of the positive control, which received detection buffer only. Plates were the centrifuged for 20 sec at 1000 rpm. After that, 10 μl of Anti-6His-Cryptate antibody/Sting ligand-d2 mix was added to all wells using a Multidrop combi dispenser, followed by another 20 sec/1000 rpm centrifugation step. After an incubation of the plates for 180 min at room temperature, […] at […] (HTRF ratio) was measured using an Envison Reader (PerkinElmer)
Data evaluation and calculation: For data evaluation and calculation, HTRF ratios were calibrated using the cGAMP standard curve. After that, the measurement of the low control was set as 0% control and the measurement of the high control was set as 100% control. The IC50 values were calculated using the standard 4 parameter logistic regression formula. Calculation: [y=(a−d)/(1+(x/c)^b)+d], a=low value, d=high value; x=conc M; c=IC50 M; b=slope;

As a reminder, the IC50 is the point on the concentration scale where inhibition reaches its midpoint.

For the compound `COc1nn(C2CC2)cc1-n1cc2c(-c3nc(-c4ccc(C(=O)N(C)C)cc4OC(F)(F)F)n(C)c3C3CC3)cccc2n1` [Example 15, 4-{5-cyclopropyl-4-[2-(1-cyclopropyl-3-methoxy-1H-pyrazol-4-yl)-2H-indazol-4-yl]-1-methyl-1H-imidazol-2-yl}-N,N-dimethyl-3-(trifluoromethoxy)benzamide], the 50% inhibitory concentration (IC50) in the test with STING amounted to 110 nM; at human STING WT (R232), 32.9 nM.

Consider `COc1nn(C2CC2)cc1-n1cc2c(-c3nc(-c4ccc(C(N)=O)cc4OCC(F)F)n(C)c3C3CC3)cccc2n1` [Example 6, 4-{5-cyclopropyl-4-[2-(1-cyclopropyl-3-methoxy-1H-pyrazol-4-yl)-2H-indazol-4-yl]-1-methyl-1H-imidazol-2-yl}-3-(2,2-difluoroethoxy)benzamide], for which the figures for the IC50 in the test with STING and at human STING WT (R232) were 58 nM and 16 nM, respectively.

For `Cn1nc(-n2cc3c(-c4nc(-c5ccc(P(C)(C)=O)cc5OC(F)(F)F)n(C)c4C4CC4)cccc3n2)cc1C(F)(F)F` [Example 20, 4-{5-cyclopropyl-2-[4-(dimethylphosphoryl)-2-(trifluoromethoxy)phenyl]-1-methyl-1H-imidazol-4-yl}-2-[1-methyl-5-(trifluoromethyl)-1H-pyrazol-3-yl]-2H-indazole], the IC50 in the test on STING amounted to 180 nM; on human STING WT (R232), 49.1 nM.

`COc1nn(C2CC2)cc1-n1cc2c(-c3nc(-c4ccc(C(N)=O)cc4OC(F)(F)F)n(C)c3C3CC3)cccc2n1` [Example 16, 4-{5-cyclopropyl-4-[2-(1-cyclopropyl-3-methoxy-1H-pyrazol-4-yl)-2H-indazol-4-yl]-1-methyl-1H-imidazol-2-yl}-3-(trifluoromethoxy)benzamide]: the IC50 in the test on STING was 35 nM; at human STING WT (R232), 13.8 nM.

With `CC[P@](C)(=O)c1ccc(-c2nc(-c3cccc4nn(-c5cc(C(F)(F)F)n(C)n5)cc34)c(C3CC3)n2C)c(OC(F)(F)F)c1` [Example 10, 4-(5-cyclopropyl-2-{4-[(S)-ethyl(methyl)phosphoryl]-2-(trifluoromethoxy)phenyl}-1-methyl-1H-imidazol-4-yl)-2-[1-methyl-5-(trifluoromethyl)-1H-pyrazol-3-yl]-2H-indazole], the IC50 with STING came to 78 nM; on human STING WT (R232), 31.9 nM.

Consider `COc1nn(C2CC2)cc1-n1cc2c(-c3nn(-c4ccc(P(C)(C)=O)cc4C)c(C)c3C(C)C)cccc2n1` [Example 9, 2-(1-cyclopropyl-3-methoxy-1H-pyrazol-4-yl)-4-{1-[4-(dimethylphosphoryl)-2-methylphenyl]-5-methyl-4-(propan-2-yl)-1H-pyrazol-3-yl}-2H-indazole], for which the IC50 in the test with STING was 1500 nM; on human STING WT (R232) it was 17.6 nM.

In the case of `CCOc1nn(C)cc1-n1cc2c(-c3nc(-c4ccc(C(N)=O)cc4OC(F)(F)F)n(C)c3C3CC3)cccc2n1` [Example 4, 4-{5-cyclopropyl-4-[2-(3-ethoxy-1-methyl-1H-pyrazol-4-yl)-2H-indazol-4-yl]-1-methyl-1H-imidazol-2-yl}-3-(trifluoromethoxy)benzamide], the concentration for half-maximal inhibition (IC50) in the test with STING was determined as 95 nM; at human STING WT (R232), 40.9 nM.

For `CC[P@@](C)(=O)c1ccc(-c2nc(-c3cccc4nn(-c5cn(C6CC6)nc5OC)cc34)c(C3CC3)n2C)c(OC(F)(F)F)c1` [Example 13, 4-(5-cyclopropyl-2-{4-[(R)-ethyl(methyl)phosphoryl]-2-(trifluoromethoxy)phenyl}-1-methyl-1H-imidazol-4-yl)-2-(1-cyclopropyl-3-methoxy-1H-pyrazol-4-yl)-2H-indazole], the IC50 in the test with STING was 38 nM; on human STING WT (R232), 18.9 nM.

Regarding `COc1nn(CC(C)(C)O)cc1-n1cc2c(-c3nc(-c4ccc(C(N)=O)cc4OC(F)(F)F)n(C)c3C3CC3)cccc2n1` [Example 11, 4-(5-cyclopropyl-4-{2-[1-(2-hydroxy-2-methylpropyl)-3-methoxy-1H-pyrazol-4-yl]-2H-indazol-4-yl}-1-methyl-1H-imidazol-2-yl)-3-(trifluoromethoxy)benzamide], the results for the IC50 in the test with STING and at human STING WT (R232) were 880 nM and 42.3 nM, respectively.

`Cn1nc(-n2cc3c(-c4nc(-c5ccc(C(N)=O)cc5OC(F)(F)F)n(C)c4C4CC4)cccc3n2)cc1C(F)(F)F` [Example 8, 4-(5-cyclopropyl-1-methyl-4-{2-[1-methyl-5-(trifluoromethyl)-1H-pyrazol-3-yl]-2H-indazol-4-yl}-1H-imidazol-2-yl)-3-(trifluoromethoxy)benzamide]: the IC50 with STING was 80 nM; at human STING WT (R232), 85.3 nM.

For the compound `Cn1nc(-n2cc3c(-c4nc(-c5ccc(P(C)(C)=O)cc5OC(F)(F)F)n(C)c4C4CC4)cccc3n2)cc1C(F)F` [Example 2, 4-{5-cyclopropyl-2-[4-(dimethylphosphoryl)-2-(trifluoromethoxy)phenyl]-1-methyl-1H-imidazol-4-yl}-2-[5-(difluoromethyl)-1-methyl-1H-pyrazol-3-yl]-2H-indazole], the half-maximal inhibitory concentration (IC50) in the test on STING amounted to 210 nM; on human STING WT (R232), 25.4 nM.

Turning to `COc1nn(C)cc1-n1cc2c(-c3nc(-c4ccc(C(=O)N(C)C)cc4OC(F)(F)F)n(C)c3C3CC3)cccc2n1` [Example 3, 4-{5-cyclopropyl-4-[2-(3-methoxy-1-methyl-1H-pyrazol-4-yl)-2H-indazol-4-yl]-1-methyl-1H-imidazol-2-yl}-N,N-dimethyl-3-(trifluoromethoxy)benzamide], the IC50 turned out to be 2600 nM in the test on STING and 122 nM at human STING WT (R232).

Take `COCc1cc(C(N)=O)ccc1-c1nc(-c2cccc3nn(-c4cn(C5CC5)nc4OC)cc23)c(C2CC2)n1C` [Example 12, 4-{5-cyclopropyl-4-[2-(1-cyclopropyl-3-methoxy-1H-pyrazol-4-yl)-2H-indazol-4-yl]-1-methyl-1H-imidazol-2-yl}-3-(methoxymethyl)benzamide]: the IC50 in the test on STING is 840 nM; at human STING WT (R232), 9.6 nM.

In the case of `CC[P@](C)(=O)c1ccc(-c2nc(-c3cccc4nn(-c5cc(C(F)F)n(C)n5)cc34)c(C3CC3)n2C)c(OC(F)(F)F)c1` [Example 7, 4-(5-cyclopropyl-2-{4-[(S)-ethyl(methyl)phosphoryl]-2-(trifluoromethoxy)phenyl}-1-methyl-1H-imidazol-4-yl)-2-[5-(difluoromethyl)-1-methyl-1H-pyrazol-3-yl]-2H-indazole], the IC50 amounted to 57 nM with STING and 19.7 nM on human STING WT (R232).
